# Values joined by “and” are separate entries in the source; they are usually repeats but may differ in a detail not shown here. Equal values may be shown once. Read-outs that look alike come from different tables or passages of the source. Marks after values point to notes of the source that are not given here.
# Experiments:
# [1] = test system: patients with rHTN; assay: Study 121: seated blood pressure in patients with resistant hypertension (Example 8); format: in vivo, human; details: for DBP decrease: after 12 weeks
# Description: This study was a randomized, double-blind, placebo-controlled study to evaluate the efficacy and safety of baxdrostat in patients with rHTN. Patients with rHTN were defined as being on a stable regimen of ≥3 antihypertensive agents, one of which is a diuretic with a mean seated blood pressure (BP)≥130/80 mmHg. […] The secondary objectives were to evaluate the change from baseline in mean seated DBP with each of the selected dose strengths of baxdrostat compared to placebo and to evaluate the percentage of patients achieving a seated BP response<130/80 mmHg with each of the dose strengths of baxdrostat compared to placebo after 12 weeks of treatment. […] The study was planned to enroll 348 patients.
# The primary endpoint was the placebo-adjusted change from baseline to week 12 of the mean office SBP. The secondary endpoints included the placebo-adjusted change from baseline to week 12 in seated office DBP, and the percentage of patients achieving a seated BP response<130/80 mmHg with each of the selected dose strengths of baxdrostat compared to placebo after 12 weeks of treatment for rHTN.
# The point estimates for the main treatment effect and for the secondary endpoints were generated by mixed model analyses of covariance that included responder status as a fixed effect. […] The change from baseline in mean seated SBP will be analyzed using a mixed model for repeated measures (MMRM) model. The analysis includes fixed effects for treatment, visit, and treatment-by-visit interaction, along with covariates of the baseline mean seated SBP and baseline glomerular filtration rate. The restricted maximum likelihood estimation (REML) approach was used with an unstructured covariance matrix.
# [2] = Pharmacokinetics in subjects with varying degrees of renal function (Example 4); format: in vivo, human; details: for half-life / Tmax / AUC(0-inf) / AUC(0-t) / Cmax / Vd/F: human, plasma, oral, 10 mg; for AUC(0-inf): read-out: AUC0-inf, mean (SD); for AUC(0-t): read-out: AUC0-last, mean (SD); for Cmax: read-out: Cmax, mean (SD); for Vd/F: read-out: Vz/F, mean (SD)
# Protocol: This phase 1, open-label, single-dose, parallel-group study was designed in accordance with the FDA guidance for the design and analysis of studies that assess the influence of impaired renal function on PK. Subjects were enrolled into three renal function groups defined based on eGFR calculated using the Chronic Kidney Disease Epidemiology Collaboration equation as follows: […]
# Control(normal renal function or mild renal impairment:eGFR≥60 mL/min) • Moderate to severe renal impairment (eGFR 15 to 59 mL/min) • Kidney failure (eGFR<15 mL/min, including subjects on dialysis)
# All subjects received a single 10 mg dose of baxdrostat in an open-label manner. […] All subjects were required to fast for a minimum of 10 hours prior to baxdrostat administration. They were then dosed at 8:00 AM (±2 hours) with two 5 mg tablets administered with approximately 240 mL of water. Subjects continued fasting for a minimum of 4 hours after dosing. No other medications were permitted within 2 hours prior to dosing and for 2 hours after dosing with baxdrostat. Subjects on dialysis received the study drug on a non-dialysis day. Blood and urine sample collection for PK analysis continued for 7 days and was proceeded by a follow-up phone call 3±1 days after clinic discharge.
# Plasma and urine samples were analyzed to measure concentrations of baxdrostat and its primary metabolite (baxdrostat-M) using a validated LC-MS/MS method. “Baxdrostat-M” as used herein refers a compound having the following structure:
# Blood and urine samples were collected prior to and after dosing for measurement of plasma and urine baxdrostat and baxdrostat-M concentrations to characterize maximum observed plasma concentration (Cmax), time to Cmax (Tmax), AUC0-last, and AUC0-inf for baxdrostat and baxdrostat-M. The t1/2, CL/F, and V/F were calculated for plasma baxdrostat only. Urine PK parameters included the cumulative amount of baxdrostat and baxdrostat-M excreted in urine (Ae), renal clearance (CLR) of baxdrostat and baxdrostat-M, and fraction of dose excreted renally (Fe) for baxdrostat.
# [3] = control eGFR ≥60 mL/min, single 10 mg
# [4] = kidney failure eGFR <15 mL/min, single 10 mg
# [5] = moderate to severe renal impairment eGFR 15-59 mL/min, single 10 mg
smiles,measurement,setting,value
"CCC(=O)N[C@@H]1CCCc2c(-c3ccc4c(c3)CCC(=O)N4C)cncc21 [baxdrostat, (R)—N-(4-(1-methyl-2-oxo-1,2,3,4-tetrahydroquinolin-6-yl)-5,6,7,8-tetrahydroisoquinolin-8-yl) propionamide]","DBP, LS mean change (SE)","[1]; 0.5 mg QD, 12 weeks",−8.6 (1.23) mmHg
same,"DBP, LS mean difference vs placebo (SE)","[1]; 0.5 mg QD, 12 weeks",0.5 (1.74) mmHg
same,"SBP, LS mean difference vs placebo (SE)","[1]; 0.5 mg QD, 12 weeks",−2.7 (2.68) mmHg
same,"SBP, LS mean change (SE)","[1]; 0.5 mg QD, 12 weeks, mITT",−12.1 (1.91) mmHg
same,treatment effect on SBP vs placebo,"[1]; 0.5 mg, 12 weeks","modestly greater than that of placebo, but this difference did not reach statistical significance"
same,DBP decrease,[1]; 0.5 mg,8.6 mmHg
same,"DBP, LS mean change (SE)","[1]; 1 mg QD, 12 weeks",−11.8 (1.26) mmHg
same,"DBP, LS mean difference vs placebo (SE)","[1]; 1 mg QD, 12 weeks",−2.7 (1.75) mmHg
same,"SBP, LS mean difference vs placebo (SE)","[1]; 1 mg QD, 12 weeks",−8.1 (2.7) mmHg and −8.1 (2.72) mmHg
same,"SBP, LS mean change (SE)","[1]; 1 mg QD, 12 weeks, mITT",−17.5 (1.95) mmHg
same,placebo-adjusted SBP decline,"[1]; 1 mg, 12 weeks",8.1 mmHg
same,DBP decrease,[1]; 1 mg,11.8 mmHg
same,"DBP, LS mean change (SE)","[1]; 2 mg QD, 12 weeks",−14.3 (1.31) mmHg
same,"DBP, LS mean difference vs placebo (SE)","[1]; 2 mg QD, 12 weeks",−5.2 (1.79) mmHg
same,"SBP, LS mean difference vs placebo (SE)","[1]; 2 mg QD, 12 weeks",−11.0 (2.78) mmHg
same,"SBP, LS mean change (SE)","[1]; 2 mg QD, 12 weeks, mITT",−20.3 (2.05) mmHg
same,DBP lowered compared to the placebo group,"[1]; 2 mg, 12 weeks",5.2 mmHg
same,"model adjusted, placebo-corrected decline in SBP","[1]; 2 mg, 12 weeks",11.0 mmHg
same,reduction in SBP,"[1]; 2 mg, 12 weeks",20.3 mmHg
same,DBP decrease,[1]; 2 mg,14.3 mmHg
same,model adjusted and placebo-corrected change from baseline in SBP,"[1]; 2 mg, intent to treat (ITT) analysis set",−11 mmHg
same,model adjusted and placebo-corrected change from baseline in SBP,"[1]; 2 mg, per protocol analysis set",−11.1 mmHg
same,time course of SBP decrease,[1]; 12 weeks of treatment,rapid after treatment started and sustained throughout the 12 weeks of treatment
same,"SBP, LS mean change (SE)","[1]; Female, 0.5 mg",−10.2 (2.77)
same,"SBP, LS mean difference (SE)","[1]; Female, 0.5 mg vs placebo",5.1 (4.12)
same,"SBP, LS mean change (SE)","[1]; Female, 1 mg",−17.8 (2.74)
same,"SBP, LS mean difference (SE)","[1]; Female, 1 mg vs placebo",−2.5 (4.09)
same,"SBP, LS mean change (SE)","[1]; Female, 2 mg",−18.2 (3.01)
same,"SBP, LS mean difference (SE)","[1]; Female, 2 mg vs placebo",−2.9 (4.27)
same,"SBP, LS mean change (SE)","[1]; Hispanic/Latino Female, 0.5 mg",−15.9 (4.27)
same,"SBP, LS mean difference (SE)","[1]; Hispanic/Latino Female, 0.5 mg vs placebo",2.2 (5.93)
same,"SBP, LS mean change (SE)","[1]; Hispanic/Latino Female, 1 mg",−11.5 (4.80)
same,"SBP, LS mean difference (SE)","[1]; Hispanic/Latino Female, 1 mg vs placebo",6.6 (6.33)
same,"SBP, LS mean change (SE)","[1]; Hispanic/Latino Female, 2 mg",−19.4 (3.59)
same,"SBP, LS mean difference (SE)","[1]; Hispanic/Latino Female, 2 mg vs placebo",−1.3 (5.46)
same,"SBP, LS mean change (SE)","[1]; Hispanic/Latino, 0.5 mg",−13.3 (2.72)
same,"SBP, LS mean difference (SE)","[1]; Hispanic/Latino, 0.5 mg vs placebo",−1.9 (3.94)
same,"SBP, LS mean change (SE)","[1]; Hispanic/Latino, 1 mg",−16.7 (3.43)
same,"SBP, LS mean difference (SE)","[1]; Hispanic/Latino, 1 mg vs placebo",−5.4 (4.46)
same,"SBP, LS mean change (SE)","[1]; Hispanic/Latino, 2 mg",−21.8 (2.95)
same,"SBP, LS mean difference (SE)","[1]; Hispanic/Latino, 2 mg vs placebo",−10.5 (4.10)
same,"SBP, LS mean change (SE)","[1]; Male, 0.5 mg",−13.7 (2.59)
same,"SBP, LS mean difference (SE)","[1]; Male, 0.5 mg vs placebo",−8.0 (3.53)
same,"SBP, LS mean change (SE)","[1]; Male, 1 mg",−17.4 (2.76)
same,"SBP, LS mean difference (SE)","[1]; Male, 1 mg vs placebo",−11.7 (3.66)
same,"SBP, LS mean change (SE)","[1]; Male, 2 mg",−22.4 (2.73)
same,"SBP, LS mean difference (SE)","[1]; Male, 2 mg vs placebo",−16.4 (3.63)
same,"SBP, LS mean change (SE)","[1]; Not Hispanic/Latino, 0.5 mg",−10.9 (2.72)
same,"SBP, LS mean difference (SE)","[1]; Not Hispanic/Latino, 0.5 mg vs placebo",−3.1 (3.75)
same,"SBP, LS mean change (SE)","[1]; Not Hispanic/Latino, 1 mg",−17.9 (2.41)
same,"SBP, LS mean difference (SE)","[1]; Not Hispanic/Latino, 1 mg vs placebo",−10.0 (3.52)
same,"SBP, LS mean change (SE)","[1]; Not Hispanic/Latino, 2 mg",−19.2 (2.86)
same,"SBP, LS mean difference (SE)","[1]; Not Hispanic/Latino, 2 mg vs placebo",−11.4 (3.84)
same,"SBP, LS mean change (SE)","[1]; Other (not Hispanic/Latino Female), 0.5 mg",−11.1 (2.11)
same,"SBP, LS mean difference (SE)","[1]; Other (not Hispanic/Latino Female), 0.5 mg vs placebo",−4.0 (2.99)
same,"SBP, LS mean change (SE)","[1]; Other (not Hispanic/Latino Female), 1 mg",−18.7 (2.13)
same,"SBP, LS mean difference (SE)","[1]; Other (not Hispanic/Latino Female), 1 mg vs placebo",−11.6 (3.00)
same,"SBP, LS mean change (SE)","[1]; Other (not Hispanic/Latino Female), 2 mg",−20.9 (2.45)
same,"SBP, LS mean difference (SE)","[1]; Other (not Hispanic/Latino Female), 2 mg vs placebo",−13.8 (3.24)
same,systolic and diastolic blood pressure,"[1]; patients with resistant hypertension, FIGS. 10A and 10B",dose-dependent decreases
same,SBP reduction by subgroup,"[1]; subgroup analyses, baseline to Day 85","greater reduction in SBP if they were male, white, not Hispanic or Latino, higher eGFR, and baseline SBP value of ≥145 mmHg"
same,recovered unchanged in the urine,[2]; control and moderate to severe renal impairment groups,Approximately 12%
same,"CL/F, mean (SD)",[2]; [3],3.06 (0.9) L/h
same,"Fe (urine), mean (CV %)",[2]; [3],12.53 (38.1) %
same,half-life,"[2]; across renal function groups, read-out: average half-life",1800 to 2520 min
same,Tmax,"[2]; all renal function groups, single 10 mg, read-out: median Tmax",≤ 1.5 h
same,AUC(0-inf),[2]; [3],3530 ng·h/mL
same,AUC(0-t),[2]; [3],3380 ng·h/mL
same,Cmax,[2]; [3],108 ng/mL
same,Tmax,"[2]; control eGFR ≥60 mL/min, single 10 mg, read-out: Tmax, mean (SD)",2.1 h
same,Vd/F,[2]; [3],146 L
same,half-life,"[2]; control eGFR ≥60 mL/min, single 10 mg, read-out: t1/2, mean (SD) (converted)",2140 min
same,AUC(0-inf),[2]; [4],2660 ng·h/mL
same,AUC(0-t),[2]; [4],2570 ng·h/mL
same,Cmax,[2]; [4],96 ng/mL
same,Tmax,"[2]; kidney failure eGFR <15 mL/min, single 10 mg, read-out: Tmax, mean (SD)",1.63 h
same,Vd/F,[2]; [4],200 L
same,AUC(0-inf),[2]; [5],4340 ng·h/mL
same,AUC(0-t),[2]; [5],4010 ng·h/mL
same,Cmax,[2]; [5],110 ng/mL
same,Tmax,"[2]; moderate to severe renal impairment eGFR 15-59 mL/min, single 10 mg, read-out: Tmax, mean (SD)",1.82 h
same,Vd/F,[2]; [5],142 L
same,half-life,"[2]; moderate to severe renal impairment eGFR 15-59 mL/min, single 10 mg, read-out: t1/2, mean (SD) (converted)",2530 min
same,"CL/F, mean (SD)",[2]; [4],5.07 (2.9) L/h
same,"Fe (urine), mean (CV %)",[2]; [4],0.91 (60.7)* %
same,"t1/2, mean (SD)",[2]; [4],29.70 (10.5) h
same,renal excretion,[2]; kidney failure group,minimal renal excretion
same,"CL/F, mean (SD)",[2]; [5],2.60 (1.0) L/h
same,"Fe (urine), mean (CV %)",[2]; [5],11.81 (26.0) %
same,"effect of renal impairment on Cmax, AUC, half-life, apparent plasma clearance, renal clearance",[2]; pairwise comparisons versus control,no meaningful effect

# — US20260041679A1, “METHOD OF TREATING HYPERTENSION WITH THE ALDOSTERONE SYNTHASE INHIBITOR BAXDROSTAT” (CINCOR PHARMA, INC., priority 2022, published 2026)
